Results as given in patent publication US9988405B2, “O-phenyl chalcone compounds and uses thereof” (Neopanora Bio-technology (Zhuhai) Ltd., priority 2014, dated 2018).
Read-outs that look alike come from different tables or passages of the source.

Columns and labels:
Format in all cases: cell-based
[1] = test system: human ovary cancer cells A2780; test: SRB anti-proliferative assay, A2780; settings: read-out: Anti-proliferative IC50, A2780
Method: (§1) The present example evaluated the anti-tumor activity of the molecules provided by the present invention. The present example mainly used a method with SRB (sulforhodamine B) dying, in which proteins in the cell were stained with SRB dye to determine protein content in the cell so as to characterize cell growth density. Firstly, the test compound was formulated into a stock solution (10 mM), which was stored at 4° C. in a refrigerator. Prior to beginning the assay, the stock solution was diluted with DMSO into a series of different concentrations. The required concentrations were obtained by diluting with complete growth medium. Well growing cells were seeded in a 96-well plate (5000 cells/well, 100 uL) and cultured in an incubator at 37° C., 5% CO2, and 90% RH. 24 h later, the prepared compound solution (100 μL) was slowly added to cell solution in the 96-well plate, and the well with DMSO (final concentration 0.5%) instead of the drug was used as a drug free control. The plate was incubated for 48 h. In addition, a day 0 plate that was drug free was directly detected after cell seeded in the plate for 24 h. The 96-well plate was taken out and added with trichloroacetic acid (50 μL, final concentration 10%). The plate was incubated at 4° C. for 1 h to fix the cells.
(§2) The plate was washed with ultrapure water and air-dried. The plate was then stained with SRB dye (0.4% in 1% acetic acid, 100 μL) for 30 min at room temperature. The plate was then washed with 1% acetic acid and then air-dried. A Tris base solution (100 μL, 10 mM, pH10.4) was added, after which the plate was gently shaken for 1 h on an orbital shaker to ensure that the dyes were completed dissolved. The optical density (OD) was recorded on a TECAN Infinite M200 Pro multimode reader at 515 nm. The cell growth (% of control)=(OD value of wells added with drug−mean OD value of Day 0 plate)/(OD value of DMSO drug-free control well−mean OD value of Day 0 plate)*100.

[2] = test system: human colon cancer cells HCT8; test: SRB anti-proliferative assay, HCT-8; settings: read-out: Anti-proliferative IC50, HCT-8
Method: as §1, §2

[3] = test system: human lung cancer cells A549; test: SRB anti-proliferative assay, A549; settings: read-out: Anti-proliferative IC50, A549
Method: as §1, §2

[4] = test system: human breast cancer cells MCF7; test: SRB anti-proliferative assay, MCF-7; settings: read-out: Anti-proliferative IC50, MCF-7
Method: as §1, §2

[5] = test system: human nasopharyngeal carcinoma cells CNE2; test: SRB anti-proliferative assay, CNE2; settings: read-out: Anti-proliferative IC50, CNE2
Method: as §1, §2

[6] = test system: human colon cancer cells SW480; test: SRB anti-proliferative assay, SW480; settings: read-out: Anti-proliferative IC50, SW480
Method: as §1, §2

[7] = test system: human liver cancer cell HepG2; test: SRB anti-proliferative assay, HepG2; settings: read-out: Anti-proliferative IC50, HepG2
Method: as §1, §2

[8] = test system: Paclitaxel-resistant human ovarian carcinoma cell A2780/TAX; test: SRB anti-proliferative assay, drug-resistant A2780/TAX; settings: read-out: Anti-proliferative IC50, A2780/TAX
Method: as §1, §2
(§3) We also evaluated the anti-proliferation activities of selected compounds against drug-resistant cancer cell lines.

[9] = test system: incristine resistant human ileocecum carcinoma cell HCT-8/VCT; test: SRB anti-proliferative assay, drug-resistant HCT-8/VCT; settings: HCT8/VCT, read-out: Anti-proliferative IC50, HCT-8/VCT
Method: as §1, §2, §3

[10] = test system: cis-platinum resistant human lung cancer cell A549/CDDP; test: SRB anti-proliferative assay, drug-resistant A549/CDDP; settings: read-out: Anti-proliferative IC50, A549/CDDP
Method: as §1, §2, §3

[11] = test system: doxorubicin resistant breast cancer cell MCF-7/DOX; test: SRB anti-proliferative assay, drug-resistant MCF-7/DOX; settings: Homo sapiens, MCF7-DOX, read-out: Anti-proliferative IC50, MCF-7/DOX
Method: as §1, §2, §3

[12] = paclitaxel-resistant A2780/TAX, SRB
[13] = vincristine-resistant HCT-8/VCT, SRB
[14] = cis-platinum resistant A549/CDDP, SRB
[15] = doxorubicin resistant MCF-7/DOX, SRB

| SMILES | IC50 ([1]; A2780, SRB, 48 h) [nM] | IC50 ([2]; HCT-8, SRB, 48 h) [nM] | IC50 ([3]; A549, SRB, 48 h) [nM] | IC50 ([4]; MCF7, MCF-7, SRB, 48 h) [nM] | IC50 ([5]; CNE-2, CNE2, SRB, 48 h) [nM] | IC50 ([6]; SW480, SRB, 48 h) [nM] | IC50 ([7]; HepG2, SRB, 48 h) [nM] | IC50 [8, 12] [nM] | IC50 [9, 13] [nM] | IC50 [10, 14] [nM] | IC50 [11, 15] [nM] | further results |
| --- | --- | --- | --- | --- | --- | --- | --- | --- | --- | --- | --- | --- |
| O=C(O)c1cccc(/C=C/C(=O)c2ccccc2-c2cccc(F)c2)c1 [compound 20] | 35 | 28 | 45 | 79 | 21 | 49 | 29 | 120 | 119 | 221 | 54 |  |
| COc1ccc(/C=C/C(=O)c2ccccc2-c2ccc(F)cc2)cc1OP(=O)(O)O [compound 11, (E)-(5-(3-(4′-Fluoro[1,1′-biphenyl]-2-yl)-3-oxoprop-1-en-1-yl)-2-Methoxyphenol) phosphate ester] |  |  |  |  |  |  |  |  |  |  |  | IC50 ([1]; A2780, 48 h): 65 nM; IC50 ([2]; HCT-8, 48 h): 88 nM; IC50 ([3]; A549, 48 h): 23 nM; IC50 ([4]; MCF7, 48 h): 96 nM; IC50 ([5]; CNE-2, 48 h): 52 nM; IC50 ([6]; SW480, 48 h): 22 nM; IC50 ([7]; HepG2, 48 h): 39 nM; IC50 ([8]; A2780/TAX): 125 nM; IC50 [9]: 263 nM; IC50 ([10]; A549/CDDP): 301 nM; IC50 [11]: 26 nM |
| O=C(/C=C/c1ccc(N2CCCC2)cc1)c1ccccc1-c1cccc(F)c1 [compound 16, (E)-1-(3′-Fluoro[1,1′-biphenyl]-2-yl)-3-(4-pyrrolidine-1-yl)prop-2-en-1-one] | 106 | 123 | 86 | 106 | 36 | 52 | 71 | 149 | 166 | 135 | 75 |  |
| O=C(O)c1ccc(/C=C/C(=O)c2ccccc2-c2cccc(F)c2)cc1 [compound 18] | 47 | 68 | 65 | 116 | 33 | 47 | 23 | 496 | 420 | 430 | 38 |  |
| COc1ccc(/C=C/C(=O)c2ccccc2-c2ccc(OC)c(OC)c2OC)cc1B(O)O [compound 8] | 98 | 118 | 64 | 114 | 86 | 74 | 78 | 234 | 156 | 247 | 75 |  |
| CC[C@]1(O)C[C@H]2CN(CCc3c([nH]c4ccccc34)[C@@](C(=O)OC)(c3cc4c(cc3OC)N(C=O)[C@H]3[C@@](O)(C(=O)OC)[C@H](OC(C)=O)[C@]5(CC)C=CCN6CC[C@]43[C@@H]65)C2)C1 [VCT, vincristine, reference compound] |  |  |  |  |  |  |  | 927 | 1920 | 56 | 4250 |  |
| N#Cc1ccc(/C=C/C(=O)c2ccccc2-c2cccc(F)c2)cc1 [compound 14, (E)-1-(3′-Fluoro[1,1′-biphenyl]-2-yl)-3-(4-cyanophenyl)prop-2-en-1-one] | 122 | 102 | 88 | 128 | 61 | 43 | 65 | 375 | 386 | 468 | 132 |  |
| COc1ccc(/C=C/C(=O)c2ccccc2-c2cccc(F)c2)cc1OP(=O)(O)O [compound 10, (E)-(5-(3-(3′-Fluoro[1,1′-biphenyl]-2-yl)-3-oxoprop-1-en-1-yl)-2-Methoxyphenol) phosphate ester] |  |  |  |  |  |  |  |  |  |  |  | IC50 ([1]; A2780, 48 h): 59 nM; IC50 ([2]; HCT-8, 48 h): 61 nM; IC50 ([3]; A549, 48 h): 10 nM; IC50 ([4]; MCF7, 48 h): 51 nM; IC50 ([5]; CNE-2, 48 h): 30 nM; IC50 ([6]; SW480, 48 h): 9 nM; IC50 ([7]; HepG2, 48 h): 10 nM; IC50 ([8]; A2780/TAX): 92 nM; IC50 [9]: 115 nM; IC50 ([10]; A549/CDDP): 102 nM; IC50 [11]: 10 nM |
| CC(=O)O[C@H]1C(=O)[C@@]2(C)[C@H]([C@H](OC(=O)c3ccccc3)[C@]3(O)C[C@H](OC(=O)[C@H](O)[C@@H](NC(=O)c4ccccc4)c4ccccc4)C(C)=C1C3(C)C)[C@]1(OC(C)=O)CO[C@@H]1C[C@@H]2O [TAX, paclitaxel, reference compound] |  |  |  |  |  |  |  |  | 2600 | 9 |  |  |

The next lines start with results.

| IC50 ([1]; A2780, SRB, 48 h) [nM] | IC50 ([2]; HCT-8, SRB, 48 h) [nM] | IC50 ([3]; A549, SRB, 48 h) [nM] | IC50 ([4]; MCF7, MCF-7, SRB, 48 h) [nM] | IC50 ([5]; CNE-2, CNE2, SRB, 48 h) [nM] | IC50 ([6]; SW480, SRB, 48 h) [nM] | IC50 ([7]; HepG2, SRB, 48 h) [nM] | IC50 [8, 12] [nM] | IC50 [9, 13] [nM] | IC50 [10, 14] [nM] | IC50 [11, 15] [nM] | SMILES | further results |
| --- | --- | --- | --- | --- | --- | --- | --- | --- | --- | --- | --- | --- |
| 89 | 99 | 88 | 124 | 46 | 87 | 44 | 95 | 112 | 118 | 75 | CN(C)c1ccc(/C=C/C(=O)c2ccccc2-c2cccc(F)c2)cc1Br [compound 15, (E)-1-(3′-Fluoro[1,1′-biphenyl]-2-yl)-3-(3-bromo-4-(Dimethylamino)phenyl)prop-2-en-1-one] |  |
| 39 | 35 | 38 | 70 | 23 | 19 | 20 | 136 | 81 | 63 | 21 | O=C(/C=C/c1ccc(O)c(S(=O)(=O)O)c1)c1ccccc1-c1ccc(F)cc1 [compound 22, (E)-5-(3-(4′-Fluoro[1,1′-biphenyl]-2-yl)-3-oxoprop-1-en-1-yl)-2-Hydroxybenzenesulfonic acid] |  |
| 10 | 14 | 11 | 69 | 15 | 6 | 9 | 43 | 37 | 69 | 5 | CN(C)c1ccc(/C=C/C(=O)c2ccccc2-c2cccc(F)c2)cc1O [compound 13, (E)-1-(3′-Fluoro[1,1′-biphenyl]-2-yl)-3-(3-hydroxy-4-(Dimethylamino)phenyl)prop-2-en-1-one] |  |
| 16 | 20 | 18 | 49 | 19 | 16 | 18 | 123 | 69 | 74 | 11 | O=C(/C=C/c1ccc(O)c(S(=O)(=O)O)c1)c1ccccc1-c1cccc(F)c1 [compound 21, (E)-5-(3-(3′-Fluoro[1,1′-biphenyl]-2-yl)-3-oxoprop-1-en-1-yl)-2-Hydroxybenzenesulfonic acid] |  |
| 10 | 12 | 14 | 42 | 16 | 10 | 12 | 53 | 62 | 42 | 3 | COc1ccc(/C=C/C(=O)c2ccccc2-c2cccc(F)c2)cc1S(=O)(=O)O [compound 23, (E)-5-(3-(3′-Fluoro[1,1′-biphenyl]-2-yl)-3-oxoprop-1-en-1-yl)-2-methoxy benzenesulfonic acid] |  |
| 73 | 92 | 48 | 48 | 25 | 44 | 37 | 55 | 86 | 68 | 32 | CN(C)c1ccc(/C=C/C(=O)c2ccccc2-c2cccc(F)c2)cc1 [compound 7, (E)-3-(4-(Dimethylamino)phenyl)-1-(3′-fluoro[1,1′-biphenyl]-2-yl)prop-2-en-1-one] |  |
